Source: the NIST ThermoML archive (doi:10.1016/j.fluid.2014.09.014)
± gives the expanded uncertainty stated by the source.

Assay: refractive index (other wavelength) (dimensionless); xn = mol fraction of the nth substance listed
Conditions: 101 kPa, Liquid, Standard Abbe refractometry

CC(C)OC(C)C [diisopropyl ether] + CC(C)O
Conditions | refractive index
293.5 K, Wavelength=632.8 nm, x1 = 0.8864 | 1.36832 ± 0.00042
293.5 K, Wavelength=632.8 nm, x1 = 0.8903 | 1.36795 ± 0.00042
293.5 K, Wavelength=632.8 nm, x1 = 0.9113 | 1.36771 ± 0.00042
293.5 K, Wavelength=632.8 nm, x1 = 0.9547 | 1.36732 ± 0.00043
293.5 K, Wavelength=632.8 nm, x1 = 0.973 | 1.36703 ± 0.00043
293.5 K, Wavelength=632.8 nm, x1 = 0.9771 | 1.36706 ± 0.00043
293.5 K, Wavelength=632.8 nm, x1 = 1 | 1.36674 ± 0.00044
293.5 K, Wavelength=644 nm, x1 = 0.0277 | 1.37541 ± 0.00032
293.5 K, Wavelength=644 nm, x1 = 0.0507 | 1.37531 ± 0.00032
293.5 K, Wavelength=644 nm, x1 = 0.051 | 1.37539 ± 0.00032
293.5 K, Wavelength=644 nm, x1 = 0.0717 | 1.37515 ± 0.00032
293.5 K, Wavelength=644 nm, x1 = 0.1528 | 1.37461 ± 0.00032
293.5 K, Wavelength=644 nm, x1 = 0.1553 | 1.37461 ± 0.00032
293.5 K, Wavelength=644 nm, x1 = 0.1938 | 1.3743 ± 0.00033
293.5 K, Wavelength=644 nm, x1 = 0.2029 | 1.37411 ± 0.00033
293.5 K, Wavelength=644 nm, x1 = 0.245 | 1.37374 ± 0.00033
293.5 K, Wavelength=644 nm, x1 = 0.297 | 1.37347 ± 0.00034
293.5 K, Wavelength=644 nm, x1 = 0.2973 | 1.3737 ± 0.00034
293.5 K, Wavelength=644 nm, x1 = 0.3068 | 1.37314 ± 0.00034
293.5 K, Wavelength=644 nm, x1 = 0.398 | 1.37206 ± 0.00035
293.5 K, Wavelength=644 nm, x1 = 0.4609 | 1.3715 ± 0.00035
293.5 K, Wavelength=644 nm, x1 = 0.5434 | 1.37078 ± 0.00036
293.5 K, Wavelength=644 nm, x1 = 0.6032 | 1.37023 ± 0.00037
293.5 K, Wavelength=644 nm, x1 = 0.6371 | 1.36988 ± 0.00038
293.5 K, Wavelength=644 nm, x1 = 0.701 | 1.36928 ± 0.00039
293.5 K, Wavelength=644 nm, x1 = 0.754 | 1.36891 ± 0.00039
293.5 K, Wavelength=644 nm, x1 = 0.791 | 1.36857 ± 0.0004
293.5 K, Wavelength=644 nm, x1 = 0.8296 | 1.36824 ± 0.00041
293.5 K, Wavelength=644 nm, x1 = 0.8864 | 1.36802 ± 0.00042
293.5 K, Wavelength=644 nm, x1 = 0.8903 | 1.36765 ± 0.00042
293.5 K, Wavelength=644 nm, x1 = 0.9113 | 1.36741 ± 0.00042
293.5 K, Wavelength=644 nm, x1 = 0.9547 | 1.36702 ± 0.00043
293.5 K, Wavelength=644 nm, x1 = 0.973 | 1.36673 ± 0.00043
293.5 K, Wavelength=644 nm, x1 = 0.9771 | 1.36675 ± 0.00043
293.5 K, Wavelength=644 nm, x1 = 1 | 1.36644 ± 0.00044
293.5 K, Wavelength=706.5 nm, x1 = 0.0277 | 1.37391 ± 0.00032
293.5 K, Wavelength=706.5 nm, x1 = 0.0507 | 1.37381 ± 0.00032
293.5 K, Wavelength=706.5 nm, x1 = 0.051 | 1.37389 ± 0.00032
293.5 K, Wavelength=706.5 nm, x1 = 0.0717 | 1.37366 ± 0.00032
293.5 K, Wavelength=706.5 nm, x1 = 0.1528 | 1.37313 ± 0.00032
293.5 K, Wavelength=706.5 nm, x1 = 0.1553 | 1.37313 ± 0.00032
293.5 K, Wavelength=706.5 nm, x1 = 0.1938 | 1.37281 ± 0.00033
293.5 K, Wavelength=706.5 nm, x1 = 0.2029 | 1.37263 ± 0.00033
293.5 K, Wavelength=706.5 nm, x1 = 0.245 | 1.37227 ± 0.00033
293.5 K, Wavelength=706.5 nm, x1 = 0.297 | 1.372 ± 0.00034
293.5 K, Wavelength=706.5 nm, x1 = 0.2973 | 1.37222 ± 0.00034
293.5 K, Wavelength=706.5 nm, x1 = 0.3068 | 1.37167 ± 0.00034
293.5 K, Wavelength=706.5 nm, x1 = 0.398 | 1.37061 ± 0.00035
293.5 K, Wavelength=706.5 nm, x1 = 0.4609 | 1.37005 ± 0.00035
293.5 K, Wavelength=706.5 nm, x1 = 0.5434 | 1.36934 ± 0.00036
293.5 K, Wavelength=706.5 nm, x1 = 0.6032 | 1.36879 ± 0.00037
293.5 K, Wavelength=706.5 nm, x1 = 0.6371 | 1.36844 ± 0.00038
293.5 K, Wavelength=706.5 nm, x1 = 0.701 | 1.36784 ± 0.00039
293.5 K, Wavelength=706.5 nm, x1 = 0.754 | 1.36746 ± 0.00039
293.5 K, Wavelength=706.5 nm, x1 = 0.791 | 1.36713 ± 0.0004
293.5 K, Wavelength=706.5 nm, x1 = 0.8296 | 1.3668 ± 0.00041
293.5 K, Wavelength=706.5 nm, x1 = 0.8864 | 1.36658 ± 0.00042
293.5 K, Wavelength=706.5 nm, x1 = 0.8903 | 1.3662 ± 0.00042
293.5 K, Wavelength=706.5 nm, x1 = 0.9113 | 1.36598 ± 0.00042
293.5 K, Wavelength=706.5 nm, x1 = 0.9547 | 1.36559 ± 0.00043
293.5 K, Wavelength=706.5 nm, x1 = 0.973 | 1.36529 ± 0.00043
293.5 K, Wavelength=706.5 nm, x1 = 0.9771 | 1.36532 ± 0.00043
293.5 K, Wavelength=706.5 nm, x1 = 1 | 1.36501 ± 0.00044
298.15 K, Wavelength=404.7 nm, x1 = 0.0277 | 1.38582 ± 0.00032
298.15 K, Wavelength=404.7 nm, x1 = 0.0507 | 1.38573 ± 0.00032
298.15 K, Wavelength=404.7 nm, x1 = 0.051 | 1.38574 ± 0.00032
298.15 K, Wavelength=404.7 nm, x1 = 0.0717 | 1.38551 ± 0.00032
298.15 K, Wavelength=404.7 nm, x1 = 0.1528 | 1.38491 ± 0.00032
298.15 K, Wavelength=404.7 nm, x1 = 0.1553 | 1.38491 ± 0.00032
298.15 K, Wavelength=404.7 nm, x1 = 0.1938 | 1.38463 ± 0.00033
298.15 K, Wavelength=404.7 nm, x1 = 0.2029 | 1.38436 ± 0.00033
298.15 K, Wavelength=404.7 nm, x1 = 0.245 | 1.38392 ± 0.00033
298.15 K, Wavelength=404.7 nm, x1 = 0.297 | 1.38349 ± 0.00034
298.15 K, Wavelength=404.7 nm, x1 = 0.2973 | 1.38372 ± 0.00034
298.15 K, Wavelength=404.7 nm, x1 = 0.3068 | 1.38326 ± 0.00034
298.15 K, Wavelength=404.7 nm, x1 = 0.398 | 1.38211 ± 0.00035
298.15 K, Wavelength=404.7 nm, x1 = 0.4609 | 1.3815 ± 0.00035
298.15 K, Wavelength=404.7 nm, x1 = 0.5434 | 1.38067 ± 0.00036
298.15 K, Wavelength=404.7 nm, x1 = 0.6032 | 1.3801 ± 0.00037
298.15 K, Wavelength=404.7 nm, x1 = 0.6371 | 1.37972 ± 0.00038
298.15 K, Wavelength=404.7 nm, x1 = 0.701 | 1.37906 ± 0.00039
298.15 K, Wavelength=404.7 nm, x1 = 0.754 | 1.37868 ± 0.00039
298.15 K, Wavelength=404.7 nm, x1 = 0.791 | 1.3783 ± 0.0004
298.15 K, Wavelength=404.7 nm, x1 = 0.8296 | 1.37799 ± 0.00041
298.15 K, Wavelength=404.7 nm, x1 = 0.8864 | 1.37775 ± 0.00042
298.15 K, Wavelength=404.7 nm, x1 = 0.8903 | 1.37734 ± 0.00042
298.15 K, Wavelength=404.7 nm, x1 = 0.9113 | 1.37711 ± 0.00042
298.15 K, Wavelength=404.7 nm, x1 = 0.9547 | 1.37676 ± 0.00043
298.15 K, Wavelength=404.7 nm, x1 = 0.973 | 1.37634 ± 0.00043
298.15 K, Wavelength=404.7 nm, x1 = 0.9771 | 1.37629 ± 0.00043
298.15 K, Wavelength=404.7 nm, x1 = 1 | 1.37607 ± 0.00044
298.15 K, Wavelength=435.8 nm, x1 = 0.0277 | 1.38277 ± 0.00032
298.15 K, Wavelength=435.8 nm, x1 = 0.0507 | 1.38268 ± 0.00032
298.15 K, Wavelength=435.8 nm, x1 = 0.051 | 1.38276 ± 0.00032
